From PubChem BioAssay AID330 (DTP/NCI, 2004)
Several values for one entry are separate records, joined by “and”; a condition that tells them apart may be missing. Equal values may be shown once. Inconclusive results and toxic doses are left out.

System: P388 leukemia ip, CD2F1 mice, survival T/C
Test: NCI In Vivo Anticancer Drug Screen. Data for tumor model P388 Leukemia (intraperitoneal) in CD2F1 (CDF1) mice
Conditions: endpoint: median survival time, higher = longer survival
Outline: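 Mice carrying the transplanted tumor received test compound or vehicle. Survival was recorded in each group, and the value is the treated-group measurement divided by that of the vehicle-treated control group.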

[1] = dose: 50.0 mg/kg/injection, schedule: Q01DX009 (ip), vehicle: saline with Tween-80

COc1cc([N+](=O)[O-])c(OC)c2c(=O)[nH]c(=O)[nH]c12
T/C (dose: 6.25 mg/kg/injection, schedule: Q01DX005 (ip), vehicle: Klucel (hydroxypropylcellulose) (HPC)): 98 % of control
T/C (dose: 12.5 mg/kg/injection, schedule: Q01DX005 (ip), vehicle: Klucel (hydroxypropylcellulose) (HPC)): 90 % of control

[Cl][Cu][Cl].[O-][n+]1c2ccccc2nc2ccccc21
T/C (dose: 12.5 mg/kg/injection, schedule: Q04DX003 (ip), vehicle: saline with Tween-80): 92 % of control
T/C (dose: 25.0 mg/kg/injection, schedule: Q04DX003 (ip), vehicle: saline with Tween-80): 103 % of control

CC1SCC(=O)N1c1nncs1 (centres undefined)
T/C (dose: 30.0 mg/kg/injection, schedule: Q01DX005 (ip), vehicle: Klucel (hydroxypropylcellulose) (HPC)): 101 % of control and 104 % of control
T/C (dose: 60.0 mg/kg/injection, schedule: Q01DX005 (ip), vehicle: Klucel (hydroxypropylcellulose) (HPC)): 102 % of control and 106 % of control
T/C (dose: 120.0 mg/kg/injection, schedule: Q01DX005 (ip), vehicle: Klucel (hydroxypropylcellulose) (HPC)): 106 % of control and 123 % of control
T/C (dose: 240.0 mg/kg/injection, schedule: Q01DX005 (ip), vehicle: Klucel (hydroxypropylcellulose) (HPC)): 123 % of control
T/C (dose: 480.0 mg/kg/injection, schedule: Q01DX005 (ip), vehicle: Klucel (hydroxypropylcellulose) (HPC)): 162 % of control

CC(=O)N1N=C(C)C2ON=C(c3ccc(Cl)cc3)P21 (centres undefined)
T/C (dose: 50.0 mg/kg/injection, schedule: Q01DX005 (ip), vehicle: Klucel (hydroxypropylcellulose) (HPC)): 107 % of control
T/C (dose: 100.0 mg/kg/injection, schedule: Q01DX005 (ip), vehicle: Klucel (hydroxypropylcellulose) (HPC)): 100 % of control
T/C (dose: 200.0 mg/kg/injection, schedule: Q01DX005 (ip), vehicle: Klucel (hydroxypropylcellulose) (HPC)): 100 % of control

COc1cccc2c1C(=O)c1c(O)c3c(c(O)c1C2=O)CC(O)CC3OC1CC(N)C(O)C(C)O1 (centres undefined)
T/C (dose: 3.13 mg/kg/injection, schedule: Q01DX009 (ip), vehicle: water): 157 % of control
T/C (dose: 6.25 mg/kg/injection, schedule: Q01DX009 (ip), vehicle: water): 173 % of control

Cc1ccc(N=CN(C)Sc2ccc(C(C)(C)C)cc2)c(C)c1
T/C (dose: 50.0 mg/kg/injection, schedule: Q01DX009 (ip), vehicle: Klucel (hydroxypropylcellulose) (HPC)): 103 % of control
T/C (dose: 100.0 mg/kg/injection, schedule: Q01DX009 (ip), vehicle: Klucel (hydroxypropylcellulose) (HPC)): 117 % of control

CC(=O)OC1SCCn2c1nc1ccccc1c2=O (centres undefined)
T/C (dose: 50.0 mg/kg/injection, schedule: Q01DX005 (ip), vehicle: saline with Tween-80): 106 % of control
T/C (dose: 100.0 mg/kg/injection, schedule: Q01DX005 (ip), vehicle: saline with Tween-80): 104 % of control
T/C (dose: 200.0 mg/kg/injection, schedule: Q01DX005 (ip), vehicle: saline with Tween-80): 99 % of control

O=c1c(N=Nc2ccccc2)c(C(O)C(O)CO)[nH]n1-c1ccc(Cl)cc1 (centres undefined)
T/C (dose: 63.5 mg/kg/injection, schedule: Q01DX001 (ip), vehicle: Klucel (hydroxypropylcellulose) (HPC)): 87 % of control
T/C (dose: 127.0 mg/kg/injection, schedule: Q01DX001 (ip), vehicle: Klucel (hydroxypropylcellulose) (HPC)): 89 % of control
T/C (dose: 254.0 mg/kg/injection, schedule: Q01DX001 (ip), vehicle: Klucel (hydroxypropylcellulose) (HPC)): 100 % of control

Cc1ccc(OP(=O)(Oc2ccc(C)cc2)Oc2ccc(C)cc2)cc1.Cc1ccc(OP(=O)(Oc2ccc(C)cc2)Oc2ccc(C)cc2)cc1.[Cl][Mn][Cl]
T/C (dose: 100.0 mg/kg/injection, schedule: Q04DX003 (ip), vehicle: Klucel (hydroxypropylcellulose) (HPC)): 110 % of control
T/C (dose: 200.0 mg/kg/injection, schedule: Q04DX003 (ip), vehicle: Klucel (hydroxypropylcellulose) (HPC)): 115 % of control
T/C (dose: 400.0 mg/kg/injection, schedule: Q04DX003 (ip), vehicle: Klucel (hydroxypropylcellulose) (HPC)): 114 % of control

COc1cc2c(c(OC)c1OC)-c1ccc(S(C)(=O)=O)c(=O)cc1[C@@H](NC(C)=O)CC2
T/C (dose: 0.78 mg/kg/injection, schedule: Q01DX009 (ip), vehicle: Klucel (hydroxypropylcellulose) (HPC)): 105 % of control and 106 % of control
T/C (dose: 1.56 mg/kg/injection, schedule: Q01DX009 (ip), vehicle: Klucel (hydroxypropylcellulose) (HPC)): 105 % of control and 120 % of control
T/C (dose: 3.12 mg/kg/injection, schedule: Q01DX009 (ip), vehicle: Klucel (hydroxypropylcellulose) (HPC)): 106 % of control and 111 % of control
T/C (dose: 6.25 mg/kg/injection, schedule: Q01DX009 (ip), vehicle: Klucel (hydroxypropylcellulose) (HPC)): 115 % of control
T/C (dose: 12.5 mg/kg/injection, schedule: Q01DX009 (ip), vehicle: Klucel (hydroxypropylcellulose) (HPC)): 105 % of control and 122 % of control
T/C (dose: 25.0 mg/kg/injection, schedule: Q01DX009 (ip), vehicle: Klucel (hydroxypropylcellulose) (HPC)): 108 % of control

O=C(CCl)Nc1nncs1
T/C (dose: 12.5 mg/kg/injection, schedule: Q01DX009 (ip), vehicle: distilled water + Tween-80): 100 % of control
T/C (dose: 25.0 mg/kg/injection, schedule: Q01DX009 (ip), vehicle: distilled water + Tween-80): 104 % of control
T/C (dose: 50.0 mg/kg/injection, schedule: Q01DX009 (ip), vehicle: distilled water + Tween-80): 106 % of control
T/C (dose: 100.0 mg/kg/injection, schedule: Q01DX009 (ip), vehicle: distilled water + Tween-80): 104 % of control
T/C (dose: 200.0 mg/kg/injection, schedule: Q01DX009 (ip), vehicle: distilled water + Tween-80): 100 % of control

COC1C=COC2(C)Oc3c(C)c(O)c4c(O)c(c(C5SCCS5)c(O)c4c3C2=O)NC(=O)C(C)=C/C=C\C(C)C2OC(C)(C)OC(C2C)C(C)C(OC(C)=O)C1C (centres undefined)
T/C [1]: 109 % of control
T/C (dose: 100.0 mg/kg/injection, schedule: Q01DX009 (ip), vehicle: saline with Tween-80): 102 % of control
T/C (dose: 200.0 mg/kg/injection, schedule: Q01DX009 (ip), vehicle: saline with Tween-80): 96 % of control

O=C1CCC([N+](=O)[O-])C(c2ccccc2)N1 (centres undefined)
T/C [1]: 100 % of control

C[N+]1=C(/C=C/Nc2ccc3ccc4cccc5ccc2c3c45)C(C)(C)c2ccccc21
T/C (dose: 6.25 mg/kg/injection, schedule: Q01DX009 (ip), vehicle: saline with Tween-80): 108 % of control
T/C (dose: 12.5 mg/kg/injection, schedule: Q01DX009 (ip), vehicle: saline with Tween-80): 100 % of control
T/C (dose: 25.0 mg/kg/injection, schedule: Q01DX009 (ip), vehicle: saline with Tween-80): 105 % of control
T/C [1]: 89 % of control
